In the NIST ThermoML archive (doi:10.1021/je900405j):
± gives the expanded uncertainty stated by the source.

Details: for viscosity: 101.33 kPa, Cone and plate viscometry; for viscosity / surface tension liquid-gas: Liquid; for surface tension liquid-gas: 293 K; for Normal melting temperature: Crystal; for Normal melting temperature / Glass transition temperature: DTA

Compound: CCC[n+]1ccn(C)c1C.O=S(=O)([N-]S(=O)(=O)C(F)(F)F)C(F)(F)F
- viscosity (290 K): 131 ± 10 mPa·s
- surface tension liquid-gas: 41 ± 6 mN/m
- viscosity (295 K): 106 ± 10 mPa·s
- viscosity (300 K): 85 ± 10 mPa·s
- viscosity (305 K): 69 ± 10 mPa·s
- viscosity (310 K): 58 ± 10 mPa·s
- viscosity (315 K): 49 ± 10 mPa·s
- viscosity (320 K): 42 ± 10 mPa·s
- viscosity (325 K): 37 ± 10 mPa·s
- viscosity (330 K): 33 ± 10 mPa·s
- viscosity (335 K): 29 ± 10 mPa·s
- viscosity (340 K): 27 ± 10 mPa·s
- viscosity (345 K): 24 ± 10 mPa·s
- viscosity (350 K): 23 ± 10 mPa·s
- viscosity (355 K): 21 ± 10 mPa·s
- viscosity (360 K): 20 mPa·s
- viscosity (365 K): 19 mPa·s
- Normal melting temperature: 8 ± 2 °C
- Glass transition temperature: -109 ± 20 °C

Compound: CCn1cc[n+](C)c1.F[B-](F)(F)F [1-ethyl-3-methylimidazolium tetrafluoroborate]
- viscosity (290 K): 46 ± 10 mPa·s
- surface tension liquid-gas: 53 ± 7 mN/m
- viscosity (295 K): 41 ± 10 mPa·s
- viscosity (300 K): 32 ± 10 mPa·s
- viscosity (305 K): 31 ± 10 mPa·s
- viscosity (310 K): 27 ± 10 mPa·s
- viscosity (315 K): 24 ± 10 mPa·s
- viscosity (320 K): 22 ± 10 mPa·s
- viscosity (325 K): 21 ± 10 mPa·s
- viscosity (330 K): 19 mPa·s
- viscosity (335 K): 18 mPa·s
- viscosity (340 K): 18 mPa·s
- viscosity (345 K): 16 mPa·s
- viscosity (350 K): 15 mPa·s
- viscosity (355 K): 15 mPa·s
- viscosity (360 K): 15 mPa·s
- viscosity (365 K): 13 mPa·s

Compound: CCCC[N+]1(C)CCCC1.FC(F)(F)C(F)(F)[P-](F)(F)(F)(C(F)(F)C(F)(F)F)C(F)(F)C(F)(F)F
- viscosity (290 K): 355 ± 17 mPa·s
- surface tension liquid-gas: 38 ± 5 mN/m
- viscosity (295 K): 272 ± 14 mPa·s
- viscosity (300 K): 209 ± 12 mPa·s
- viscosity (305 K): 163 ± 11 mPa·s
- viscosity (310 K): 129 ± 10 mPa·s
- viscosity (315 K): 105 ± 10 mPa·s
- viscosity (320 K): 87 ± 10 mPa·s
- viscosity (325 K): 72 ± 10 mPa·s
- viscosity (330 K): 62 ± 10 mPa·s
- viscosity (335 K): 53 ± 10 mPa·s
- viscosity (340 K): 47 ± 10 mPa·s
- viscosity (345 K): 41 ± 10 mPa·s
- viscosity (350 K): 37 ± 10 mPa·s
- viscosity (355 K): 34 ± 10 mPa·s
- viscosity (360 K): 30 ± 10 mPa·s
- viscosity (365 K): 28 ± 10 mPa·s
- Normal melting temperature: 4 ± 2 °C
- Glass transition temperature: -116 ± 3 °C

Compound: CCn1cc[n+](C)c1.N#CN=C=[N-] [1-ethyl-3-methylimidazolium dicyanamide]
- viscosity (290 K): 24 mPa·s
- surface tension liquid-gas: 64 ± 9 mN/m
- viscosity (295 K): 21 mPa·s
- viscosity (300 K): 19 mPa·s
- viscosity (305 K): 18 mPa·s
- viscosity (310 K): 17 mPa·s
- viscosity (315 K): 16 mPa·s
- viscosity (320 K): 15 mPa·s
- viscosity (325 K): 15 mPa·s
- viscosity (330 K): 14 mPa·s
- viscosity (335 K): 14 mPa·s
- viscosity (340 K): 13 mPa·s
- viscosity (345 K): 13 mPa·s
- viscosity (350 K): 12 mPa·s
- viscosity (355 K): 12 mPa·s
- viscosity (360 K): 12 mPa·s
- viscosity (365 K): 12 mPa·s
- Normal melting temperature: -18 ± 2 °C
- Glass transition temperature: -96 ± 3 °C
